Measured values taken from patent EP3398601A1, “NICOTINAMIDE FOR TREATING DYSLIPIDEMIA” (priority 2017, dated 2018).
Entries after “also recorded” stand apart in the source; their conditions may differ.

Key:
NaPi2b [1] = assay: Intestinal (ileum) NaPi2b expression, immune fluorescence and RNA, in 5/6 nephrectomized DBA/2 mice; type: in vivo, DBA/2 mouse
Method: Further, the effect of nicotinamide treatment on intestinal NaPi2b protein expression in a mouse model (DBA/2 mouse) was investigated.
(§1) For this purpose, 5/6 nephrectomized DBA/2 mice were used as model for vascular calcification. The mice were treated with nicotinamide (NA) in a concentration of 600 µg/mL in the drinking water.
Bars between columns indicate significant between groups differences (ANOVA with Tukey Post Test, p<0.05).

[2] = S-phosphate and fractional phosphate elimination in DBA/2 mice; type: in vivo; conditions: for fractional phosphate elimination (in words): DBA/2 mice
Method: as §1

FGF23 = FGF23 in DBA/2 mice; type: in vivo
Method: as §1

NaPi2b [3] = assay: Renal NaPi2b protein expression, immune fluorescence, in 5/6 nephrectomized DBA/2 mice; conditions: 5/6 nephrectomized DBA/2 mice (CKD); Fig. 4
GPR109A receptor = GPR109A receptor (Homo sapiens, UniProt Q8TDS4); conditions: cited from earlier work
Sequence of GPR109A receptor (Q8TDS4 whole entry): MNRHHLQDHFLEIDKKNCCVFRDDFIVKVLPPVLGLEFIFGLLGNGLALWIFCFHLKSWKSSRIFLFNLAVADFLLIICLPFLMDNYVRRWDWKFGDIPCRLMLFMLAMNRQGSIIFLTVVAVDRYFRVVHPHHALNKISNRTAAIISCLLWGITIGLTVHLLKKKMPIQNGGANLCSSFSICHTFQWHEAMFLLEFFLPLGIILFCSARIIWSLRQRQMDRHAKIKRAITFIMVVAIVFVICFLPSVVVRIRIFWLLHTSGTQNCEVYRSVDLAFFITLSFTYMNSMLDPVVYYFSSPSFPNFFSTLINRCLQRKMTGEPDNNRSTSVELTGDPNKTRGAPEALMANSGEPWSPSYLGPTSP

[4] = given in combination with the phosphate binder sevelamer; cited from earlier work
NaPi2b [5] = conditions: intraperitoneal administration; cited from earlier work
[6] = intraperitoneal administration; cited from earlier work
Lp(a) [7] = assay: Lp(a) plasma levels (Apo(a) ELISA) in transgenic Apo(a) mice given the substance in chow, cross-over design; conditions: for reduction of Lp(a): 1% orally as food supplement, compared to baseline levels
Method: In the transgenic Apo(a) mice (tg-Apo(a)) Apo(a) is expressed mainly in female mice.
Levels of Apo(a) were determined by means of ELISA and were expressed as Lp(a) in mg/dl as each molecule Apo(a) binds one molecule of LDL to form Lp(a).

Apo(a) = conditions: oral treatment with 1% nicotinic acid in the chow; female tg-Apo(a) mice; cited from earlier work
Lp(a) [8] = conditions: literature values (Carlson, 1989; Kotani, 2017); cited from earlier work

SMILES | intestinal NaPi2b protein / cotransporter content of the small intestine (in words) (NaPi2b [1]; 5/6 nephrectomized DBA/2 mice, NA 600 µg/mL in the drinking water, Fig. 3) | intestinal NaPi2b protein / cotransporter content of the small intestine (in words) (NaPi2b [1]; 5/6 nephrectomized DBA/2 mice, NA 600 µg/mL in the drinking water, Fig. 3, listed as Mg) | intestinal NaPi2b protein / cotransporter content of the small intestine (in words) (NaPi2b [1]; 5/6 nephrectomized DBA/2 mice, NA 600 µg/mL in the drinking water, Fig. 3, listed as magnesium carbonate (Mg)) | increase of cotransporter expression (intestinal NaPi2b) (NaPi2b [1]; 5/6 nephrectomized DBA/2 mice, treatment for 7 weeks, Fig. 3) | fractional phosphate elimination (in words) [2] | FGF23 (in words) (FGF23) | renal NaPi2b protein expression (in words) (NaPi2b [3]) | NaPi2b-RNA of the small intestine (in words) (NaPi2b [1]; DBA/2 mice, NA 600 µg/mL in the drinking water) | S-phosphate (in words) ([2]; effect only in healthy DBA/2 mice with high phosphate diet (phosphorus content 1.03 % (w/w)), NA 600 µg/mL in the drinking water) | binding to GPR109A receptor (in words) (GPR109A receptor) | treatment of hyperphosphatemia (in words) [4] | expression of NaPi2b (in words) (NaPi2b [5]) | gastrointestinal absorption of phosphate (in words) [6] | reduction of Lp(a) (Lp(a) [7]; after two weeks of treatment) [%] | reduction of Lp(a) (Lp(a) [7]; after week 1) [%] | Lp(a) plasma levels lower compared to nicotinic acid (Lp(a) [7]; after 2 weeks of treatment, Fig. 1 legend) | reduction in plasma Apo(a) protein (Apo(a)) [%] | reduces Lp(a) (Lp(a) [8])
O=C(O)O [magnesium carbonate] | strongly enhances | notable increase | strong enhancement | 10 -fold | reduction | reduction | no significant difference compared to baseline; also recorded: no significant effects |  |  |  |  |  |  |  |  |  |  | 
NC(=O)c1cccnc1 [nicotinamide] |  |  |  |  | reduction | reduction |  | did not show any influence | decrease | does not bind or otherwise affect | ineffective | blocks | inhibits | 77 | 67 | more than 50% |  | 
O=C(O)c1cccnc1 [nicotinic acid] |  |  |  |  |  |  |  |  |  |  |  |  |  | 50 | 37 |  | 43 | up to 35%
